According to patent US20170176446A1, “Methods for Determining the Oncogenic Condition of Cell, Uses Thereof, and Methods for Treating Cancer” (INSERM (INSTITUT NATIONAL DE LA SANTE ET DE LA RECHERCHE …, priority 2009, published 2017):

How the values were obtained:
ChEH [1] = target: T1, ChEH (Rattus norvegicus, UniProt Q9JJ46); assay: Determination of the Ki for ChEH on rat liver microsome proteins (Dixon method); format: biochemical; settings: 150 μg rat liver microsome proteins, [14C]CEα
T1 construct: 150 μg of rat liver microsome proteins are incubated; from tissue; host or cells: rat liver microsomes
T1 sequence (Q9JJ46 1-230): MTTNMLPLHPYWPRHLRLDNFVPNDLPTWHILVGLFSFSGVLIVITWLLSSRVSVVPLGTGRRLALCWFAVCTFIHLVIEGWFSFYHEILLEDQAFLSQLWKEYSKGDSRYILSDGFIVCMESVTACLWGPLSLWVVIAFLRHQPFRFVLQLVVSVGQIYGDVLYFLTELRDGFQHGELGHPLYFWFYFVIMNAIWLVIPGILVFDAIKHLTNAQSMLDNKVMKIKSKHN

OCDO = OCDO content of TS/A tumors by GC/MS; format: in vivo, mice; settings: DDA 10 μM, 100 μl intratumorally once a day
Procedure: 5 volumes (relative to the mass removed) of buffer (50 mM Tris-HCl, 150 mM KCl, pH=7.4) are added. The tumors are ground and the homogenates are centrifuged for 5 minutes at 2500 rpm at 4° C. […] After centrifugation (to separate the phases), the organic phase is recovered. The organic phase is evaporated to dryness and then the residue is taken up with 0.5 ml of chloroform. The organic extracts are filtered on 0.5 ml silica cartridges. The polar sterols are eluted sequentially:
1) 0.5 ml of a hexane/chloroform mixture (1/1), 2) 0.5 ml of chloroform, 3) 0.5 ml of ethyl acetate and methanol.
The ethyl acetate fractions are evaporated, silylated (50 μl 1/1 acetonitrile/BSTFA) and then analyzed by GC/MS (2 μl) according to the conditions described above.

ChEH [2] = target: T2, ChEH (Homo sapiens, UniProt Q15125); assay: Inhibition of ChEH activity in MCF7 cells (TLC of [14C]CE conversion); format: cell-based; settings: 48 hours, MCF7 cells
T2 construct: MCF7 tumor cells, which originate from the American Tissue Culture Collection (ATCC), were used; host or cells: MCF7
T2 sequence (Q15125 whole entry): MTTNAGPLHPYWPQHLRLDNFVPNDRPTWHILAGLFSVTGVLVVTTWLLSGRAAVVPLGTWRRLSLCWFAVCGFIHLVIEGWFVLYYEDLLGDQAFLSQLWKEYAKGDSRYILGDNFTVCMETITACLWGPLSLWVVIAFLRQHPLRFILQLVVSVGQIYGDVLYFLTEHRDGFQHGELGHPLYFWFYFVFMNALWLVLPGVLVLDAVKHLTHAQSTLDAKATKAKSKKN
Procedure: For this experiment, an aminoalkyl sterol included in French patent 2 838 741 (and also see: de Medina et al., J Med Chem: 2009, vol. 52, No. 23, p. 7765-7777), having the formula: 6-N-[2-(3H-imidazol-4-yl)ethylamino]cholestane-3β,5α-diol (DDA), was chosen. […]
A thin-layer chromatography was carried out, the plate of which has been reproduced in FIG. 23. On this plate, the incubation is carried out, for lane 1, with [^14C]CE; for lane 2, with [^14C]CT; for lane 3, with the vehicle solvent, which is the same as that used for assays 1 to 5; for lane 4, with [14C]CE and 0.1 μM of the aminoalkyl sterol; and for lane 5, with [^14C]CE and a concentration of 1 μM of the aminoalkyl sterol.

TS/A cells = assay: Tumor size of TS/A tumors implanted in BALB/c mice, intratumoral treatment; format: in vivo; settings: DDA 10 μM, 100 μl intratumorally once a day
Procedure: A cell culture of TS/A cells was first performed. These TS/A cells are mouse mammary adenocarcinomas (see Nanni P et al., Clin. Exp. Metastasis, 1983 October-December; 1(4): 373-80). The cells are cultured, at 37° C. under 5% CO2, in a DMEM medium supplemented with 2 g/liter of sodium carbonate, 1.2 mM of glutamine (pH 7.4 at 23° C.), 5% of fetal bovine serum (Gibco) and 2.5 ml of antibiotics per liter of medium (penicillin/streptomycin).
The TS/A cells are recovered with trypsin, washed twice and suspended in PBS buffer. The TS/A cells (approximately 4×10^6 […] cells/0.1 ml) are then injected subcutaneously into the flank of 6-week-old female BALB/c mice (supplied by Charles River). […] The animals (10 mice per group) are monitored regularly for tumor development. The volume of the tumors is calculated according to the following formula: L×l^2×0.5 (L is the length and l is the width of the tumor). The experiment was reproduced twice. The results are given in FIG. 18 (the arrow indicates the beginning of the treatment).

ChEH [3] = target: T2, ChEH; assay: ChEH activity on MCF7 cell lysate (homogenate); format: biochemical; settings: 150 μg of proteins, read-out: (IC50)homogenate, ChEH inhibition
Procedure: Moreover, a study of this inhibition on homogenate was also carried out. The protocol is as follows: the MCF7 cells are detached with trypsin and taken up with RPMI medium containing 5% FBS. The cell suspension obtained (60 million cells) is centrifuged, washed with cold PBS and resuspended in 1 ml of […] buffer (pH=7.4; 150 mM KCl). The cells are lyzed by means of five freezing/thawing (liquid nitrogen/37° C.) cycles. The solution is centrifuged at 1200 rpm at 4° C. for 10 minutes. The supernatant is recovered and the amount of proteins is determined by the Bradford method. The measurement of the ChEH activity on MCF7 cell lysate is carried out as follows: the enzymatic activity is measured on 150 μg of proteins in a final volume of 150 μl containing […] of ChEH buffer (Tris-HCl, pH 7.4, 150 mM KCl) and 15 μl of MCF7 proteins.

MCF7 cells = assay: OCDO production by MCF7 cells incubated with [14C]CE, thin-layer chromatography; format: cell-based, human; settings: concentration in μM in parentheses after each molecule; control = 100
Text: For assays 1 to 5 and in some of the examples given later in this patent application, MCF7 tumor cells, which originate from the American Tissue Culture Collection (ATCC), were used. […] It is desired to study the activity of ChEH in […] cells by silica thin-layer chromatography. The compounds that it is desired to visualize are the CE and CT compounds defined above. In order to visualize the spots corresponding to CE and CT on a chromatography plate, ^14C-labeled CE and CT compounds were synthesized.
In order to be used in assays 1 to 5 which follow, the cells are seeded into 6-well plates at a density of 80 000 cells in a volume of 2 ml. […] After the incubation time desired for the assay, the medium is collected, the cells are washed with cold PBS (phosphate buffer) (2 ml per well) which is pooled with the medium. The cells are then scraped into cold PBS (1 ml for 3 wells); the wells are again rinsed with cold PBS (1 ml for 3 wells). The cell suspension obtained is centrifuged at 1000 rpm for 5 min at 4° C. […] Throughout the rest of this description, the vehicle solvent used is the same as that defined above.
The aqueous and organic radioactivities are counted. The organic phases are brought to dryness under argon. The residue is resuspended in 60 μl of ethanol and then deposited, in a proportion of 20 μl per lane, on to the glass-backed silica plates (Whatman LK-6-DF, 20×20), which are used in the various assays (these plates having been preheated at 100° C. for 1 hour). The migration solvent used is ethyl acetate. The chromatography plates are placed in contact with a “phosphor-screen” plate in a cassette overnight. […] In order to evaluate the more or less dense nature of the spots obtained on the plates, the radioactivity is quantified by densitometry with the “Imagequant”™ computer program.
Generally, in order to establish the percentages of OCDO inhibition from the thin-layer chromatography (TLC) plates obtained as in assay 2, the radioactive metabolites are identified and quantified on the basis of said plates using a europium-sensitive plate of GP Phosphor screen type (GE Healthcare) and a Storm 840 phosphorimagor (GE Healthcare). The proportion of radiolabeled oxysterols is determined on the autoradiogram obtained by densitometry using the Image Quant 5.2 software. The percentage is calculated on the basis of the ratio between the amount of oxysterols quantified divided by the sum of the amounts of oxysterols (CEE+CE+CT+OCDO). Since the CEE (CE ester) originates exclusively from the CE, the percentage CE is calculated on the basis of the ratio (CE+CEE)/(CE+CEE+CT+OCDO).
Assay 2 given above was therefore completed by measuring the amounts of the products present when the MCF7 tumor cells are incubated as indicated in detail in assay 2.
In order to establish that the link that exists between, on the one hand, the ability of various compounds to inhibit OCDO in an MCF7 tumor cell and, on the other hand, their quality as a ChEH inhibitor, is well-founded, the inhibition coefficients Ki for ChEH relating to a certain number of products was calculated and the production of OCDO by MCF7 cells after incubation of the cells with the same products was measured according to the protocol defined in assay 2 of the present patent application.

- Ki (ChEH [1]): 1.25 ± 0.006 µM
- inhibition of ChEH (ChEH [2]; 0.1 and 1 μM, dependent on the concentration): causes an inhibition of ChEH
- IC50 (ChEH [2]; [14C]CE 0.6 μM): 0.6 µM
- IC50 (ChEH [3]): 11.2 µM
Compound: CC(C)CCC[C@@H](C)[C@H]1CC[C@H]2[C@@H]3C[C@@H](NCCc4c[nH]cn4)[C@@]4(O)C[C@@H](O)CC[C@]4(C)[C@H]3CC[C@]12C [DDA, 6-N-[2-(3H-imidazol-4-yl)ethylamino]cholestane-3β,5α-diol]
- OCDO (% control) (OCDO; Day 28): 14.5 ± 3 % control
- OCDO (% control) (OCDO; Day 37): 4.5 ± 3 % control
- Tumor size (% control) (TS/A cells; Day 28): 65.4 ± 7 % control
- Tumor size (% control) (TS/A cells; Day 37): 28.3 ± 8 % control
- OCDO production by MCF-7 (% control) (MCF7 cells): <1 % control
